Assay results: patent US20070264247A1, “Use of Human Lysozyme in Preparation of Medicine for Treating Acne” (priority 2004, published 2007)
≈ marks a conversion by molar mass, not a printed value. Where two headings read alike, the source gives them in different places. Blank lines part the entries; values can stand above or below the compound they belong to.

Experiments:
Experiment in all cases: MIC by double agar dilution method, clinical isolates
Type in all cases: cell-based
Serratia marcescens = tested on: Serratia marcescens
Method: (§1) Strain: Pathogenic bacteria isolated from clinical laboratory collected from Sichuan, Beijing, 2002.4˜2003.9, assessed using the method of API in our laboratory.
(§2) Test the minimum inhibitory concentration (MIC) of the tested drug against the strains using the double agar dilution method. The tested drug was dissolved in sterile purified water and diluted properly. The drug-containing petri dishes were prepared by spiking 1 ml drug conclusion with melted 9 ml Tris —HCl agarose solid medium, using agar twofold dilution method and obtained the concentration of 4, 2, 1, 0.5, 0.25, 0.125, 0.06, 0.03 . . . 0.001 mg/ml. The strain solution of 10^5 CFU/ml was inoculated on the petri dishes using the multipoint inoculator, cultured for 8-10 h at 37° C., covered the petri dishes using melted 6 ml M-H Medium (50° C.) respectively, cultured for 10 h at 37° C. The minimal concentration of the drug-containing petri dishes which had no bacterium growth was the minimal inhibitory concentration (MIC).

Escherichia coli = tested on: Escherichia coli
Method: as §1, §2

Staphylococcus aureus = tested on: Staphylococcus aureus
Method: as §1, §2

Propionibacterium = tested on: Propionibacterium
Method: as §1, §2

Klebsiella pneumoniae = tested on: Klebsiella pneumoniae
Method: as §1, §2

[1] = tested on: Staphylococcu epidermidis
Method: as §1, §2

[2] = Serratia marcescens 2-31-8 (first line)
[3] = Serratia marcescens 2-31-8 (second line)
[4] = Serratia marcescens 2-31-8 (third line)
[5] = Escherichia coli 03-2-41, read-out: MIC
[6] = Escherichia coli 03-2-42, read-out: MIC
[7] = Escherichia coli 03-2-43, read-out: MIC
[8] = Escherichia coli 03-2-45, read-out: MIC
[9] = Escherichia coli 03-2-51, read-out: MIC
[10] = Escherichia coli 03-2-52, read-out: MIC
[11] = Escherichia coli 03-2-53, read-out: MIC
[12] = Escherichia coli 03-2-54, read-out: MIC
[13] = Escherichia coli 03-2-56, read-out: MIC
[14] = Escherichia coli 03-2-57, read-out: MIC
[15] = Escherichia coli 03-2-58, read-out: MIC
[16] = Staphylococcus aureus MRSA02-22, read-out: MIC
[17] = Staphylococcus aureus MRSA02-23
[18] = Staphylococcus aureus MRSA02-26
[19] = Staphylococcus aureus MRSA02-28
[20] = Staphylococcu epidermidis MRSE02-3
[21] = Staphylococcu epidermidis MRSE02-4
[22] = Staphylococcu epidermidis MRSE02-5
[23] = Staphylococcu epidermidis MRSE02-6
[24] = Staphylococcu epidermidis MRSE02-10
[25] = Staphylococcu epidermidis MRSE02-11
[26] = Staphylococcu epidermidis MRSE02-12
[27] = Staphylococcu epidermidis MRSE02-15
[28] = Staphylococcu epidermidis MRSE02-17
[29] = Staphylococcu epidermidis MRSE02-18
[30] = Staphylococcu epidermidis MRSE02-20
[31] = Staphylococcu epidermidis MRSE02-20-1
[32] = Staphylococcu epidermidis MRSE02-20-2
[33] = Staphylococcu epidermidis MRSE02-20-3
[34] = Staphylococcu epidermidis MRSE02-20-4
[35] = Staphylococcu epidermidis MRSE02-20-5
[36] = Staphylococcu epidermidis MRSE02-20-6
[37] = Staphylococcu epidermidis MRSE02-20-7
[38] = Staphylococcu epidermidis MRSE02-20-8
[39] = Staphylococcu epidermidis MRSE02-20-9
[40] = Staphylococcu epidermidis MRSE02-21
[41] = Staphylococcu epidermidis MRSE02-22
[42] = Staphylococcu epidermidis MRSE02-29
[43] = Staphylococcu epidermidis MssE25

MIC (Serratia marcescens; [2]): 16 µg/mL (≈ 19.1 µM)
MIC (Serratia marcescens; [3]): 16 µg/mL (≈ 19.1 µM)
MIC (Serratia marcescens; [4]): 16 µg/mL (≈ 19.1 µM)
MIC (Escherichia coli; [5]): > 1000 µg/mL
MIC (Escherichia coli; [6]): > 1000 µg/mL
MIC (Escherichia coli; [7]): 250 µg/mL (≈ 299 µM)
MIC (Escherichia coli; [8]): 500 µg/mL (≈ 597 µM)
MIC (Escherichia coli; [9]): > 1000 µg/mL
MIC (Escherichia coli; [10]): 250 µg/mL (≈ 299 µM)
MIC (Escherichia coli; [11]): 250 µg/mL (≈ 299 µM)
MIC (Escherichia coli; [12]): 1000 µg/mL (≈ 1190 µM)
MIC (Escherichia coli; [13]): 250 µg/mL (≈ 299 µM)
MIC (Escherichia coli; [14]): 250 µg/mL (≈ 299 µM)
MIC (Escherichia coli; [15]): 500 µg/mL (≈ 597 µM)
MIC (Escherichia coli; Escherichia coli 03-2-59, read-out: MIC): 250 µg/mL (≈ 299 µM)
MIC (Staphylococcus aureus; Staphylococcus aureus 02-19-5): >1000 µg/mL
MIC (Staphylococcus aureus; [16]): > 1000 µg/mL
MIC (Staphylococcus aureus; [17]): >1000 µg/mL
MIC (Staphylococcus aureus; [18]): >1000 µg/mL
MIC (Staphylococcus aureus; [19]): >1000 µg/mL
MIC (Propionibacterium; Propionibacterium 02-7-4): 2 µg/mL (≈ 2.39 µM)
MIC (Propionibacterium; Propionibacterium 02-7-5): < 1 µg/mL
MIC (Propionibacterium; Propionibacterium 02-7-6): 250 µg/mL (≈ 299 µM)
MIC (Propionibacterium; Propionibacterium 02-7-7): 250 µg/mL (≈ 299 µM)
MIC (Propionibacterium; Propionibacterium 02-7-9): 16 µg/mL (≈ 19.1 µM)
MIC (Propionibacterium; Propionibacterium 03-2-22): 1000 µg/mL (≈ 1190 µM)
MIC (Propionibacterium; Propionibacterium 03-2-30): > 1000 µg/mL
MIC (Propionibacterium; Propionibacterium 03-2-32): 500 µg/mL (≈ 597 µM)
MIC (Propionibacterium; Propionibacterium 03-2-33): > 1000 µg/mL
MIC (Propionibacterium; Propionibacterium 03-2-36): 500 µg/mL (≈ 597 µM)
MIC (Propionibacterium; Propionibacterium 03-2-37): 1000 µg/mL (≈ 1190 µM)
MIC (Propionibacterium; Propionibacterium 03-2-39): 1000 µg/mL (≈ 1190 µM)
MIC (Klebsiella pneumoniae; Klebsiella pneumoniae 02-6-14): > 1000 µg/mL
MIC (Klebsiella pneumoniae; Klebsiella pneumoniae 02-6-18): 1000 µg/mL (≈ 1190 µM)
MIC [1, 20]: > 1000 µg/mL
MIC [1, 21]: > 1000 µg/mL
MIC [1, 22]: < 1 µg/mL
MIC [1, 23]: < 1 µg/mL
MIC [1, 24]: 1000 µg/mL (≈ 1190 µM)
MIC [1, 25]: < 1 µg/mL
MIC [1, 26]: 125 µg/mL (≈ 149 µM)
MIC [1, 27]: > 1000 µg/mL
MIC [1, 28]: > 1000 µg/mL
MIC [1, 29]: < 1 µg/mL
MIC [1, 30]: > 1000 µg/mL
MIC [1, 31]: < 1 µg/mL
MIC [1, 32]: > 1000 µg/mL
MIC [1, 33]: > 1000 µg/mL
MIC [1, 34]: > 1000 µg/mL
MIC [1, 35]: > 1000 µg/mL
MIC [1, 36]: > 1000 µg/mL
MIC [1, 37]: 1000 µg/mL (≈ 1190 µM)
MIC [1, 38]: < 1 µg/mL
MIC [1, 39]: < 1 µg/mL
MIC [1, 40]: < 1 µg/mL
MIC [1, 41]: < 1 µg/mL
MIC [1, 42]: 500 µg/mL (≈ 597 µM)
MIC [1, 43]: < 1 µg/mL
SMILES: CC[C@H]1OC(=O)[C@H](C)[C@@H](O[C@H]2C[C@@](C)(OC)[C@@H](O)[C@H](C)O2)[C@H](C)[C@@H](O[C@@H]2O[C@H](C)C[C@H](N(C)C)[C@H]2O)[C@](C)(O)C[C@@H](C)/C(=N\OCOCCOC)[C@H](C)[C@@H](O)[C@]1(C)O [ROX, Roxithromycin]

SMILES: CC[C@H]1OC(=O)[C@H](C)[C@@H](O[C@H]2C[C@@](C)(OC)[C@@H](O)[C@H](C)O2)[C@H](C)[C@@H](O[C@@H]2O[C@H](C)C[C@H](N(C)C)[C@H]2O)[C@](C)(OC)C[C@@H](C)C(=O)[C@H](C)[C@@H](O)[C@]1(C)O [CLA, Clarithromycin]
MIC (Serratia marcescens; [2]): 8 µg/mL (≈ 10.7 µM)
MIC (Serratia marcescens; [3]): 8 µg/mL (≈ 10.7 µM)
MIC (Serratia marcescens; [4]): 16 µg/mL (≈ 21.4 µM)
MIC (Escherichia coli): 125 µg/mL (≈ 167 µM)
MIC (Escherichia coli; [5]): > 1000 µg/mL
MIC (Escherichia coli; [6]): 63 µg/mL (≈ 84.2 µM)
MIC (Escherichia coli; [7]): 16 µg/mL (≈ 21.4 µM)
MIC (Escherichia coli; [8]): 250 µg/mL (≈ 334 µM)
MIC (Escherichia coli; [9]): > 1000 µg/mL
MIC (Escherichia coli; [10]): > 1000 µg/mL
MIC (Escherichia coli; [11]): 30 µg/mL (≈ 40.1 µM)
MIC (Escherichia coli; [12]): > 1000 µg/mL
MIC (Escherichia coli; [13]): 16 µg/mL (≈ 21.4 µM)
MIC (Escherichia coli; [14]): 32 µg/mL (≈ 42.8 µM)
MIC (Escherichia coli; [15]): > 1000 µg/mL
MIC (Staphylococcus aureus; Staphylococcus aureus 02-19-5): >1000 µg/mL
MIC (Staphylococcus aureus; [16]): > 1000 µg/mL
MIC (Staphylococcus aureus; [17]): >1000 µg/mL
MIC (Staphylococcus aureus; [18]): >1000 µg/mL
MIC (Staphylococcus aureus; [19]): >1000 µg/mL
MIC (Propionibacterium; Propionibacterium 02-7-4): 2 µg/mL (≈ 2.67 µM)
MIC (Propionibacterium; Propionibacterium 02-7-5): < 1 µg/mL
MIC (Propionibacterium; Propionibacterium 02-7-6): 8 µg/mL (≈ 10.7 µM)
MIC (Propionibacterium; Propionibacterium 02-7-7): 32 µg/mL (≈ 42.8 µM)
MIC (Propionibacterium; Propionibacterium 02-7-9): 8 µg/mL (≈ 10.7 µM)
MIC (Propionibacterium; Propionibacterium 03-2-22): 1000 µg/mL (≈ 1340 µM)
MIC (Propionibacterium; Propionibacterium 03-2-30): > 1000 µg/mL
MIC (Propionibacterium; Propionibacterium 03-2-32): 8 µg/mL (≈ 10.7 µM)
MIC (Propionibacterium; Propionibacterium 03-2-33): > 1000 µg/mL
MIC (Propionibacterium; Propionibacterium 03-2-36): 250 µg/mL (≈ 334 µM)
MIC (Propionibacterium; Propionibacterium 03-2-37): > 1000 µg/mL
MIC (Propionibacterium; Propionibacterium 03-2-39): 500 µg/mL (≈ 668 µM)
MIC (Klebsiella pneumoniae; Klebsiella pneumoniae 02-6-14): 63 µg/mL (≈ 84.2 µM)
MIC (Klebsiella pneumoniae; Klebsiella pneumoniae 02-6-18): 500 µg/mL (≈ 668 µM)
MIC [1, 20]: > 1000 µg/mL
MIC [1, 21]: 500 µg/mL (≈ 668 µM)
MIC [1, 22]: < 1 µg/mL
MIC [1, 23]: < 1 µg/mL
MIC [1, 24]: 1000 µg/mL (≈ 1340 µM)
MIC [1, 25]: < 1 µg/mL
MIC [1, 26]: 8 µg/mL (≈ 10.7 µM)
MIC [1, 27]: 1000 µg/mL (≈ 1340 µM)
MIC [1, 28]: 250 µg/mL (≈ 334 µM)
MIC [1, 29]: < 1 µg/mL
MIC [1, 30]: > 1000 µg/mL
MIC [1, 31]: < 1 µg/mL
MIC [1, 32]: > 1000 µg/mL
MIC [1, 33]: > 1000 µg/mL
MIC [1, 34]: > 1000 µg/mL
MIC [1, 35]: > 1000 µg/mL
MIC [1, 36]: > 1000 µg/mL
MIC [1, 37]: 1000 µg/mL (≈ 1340 µM)
MIC [1, 38]: < 1 µg/mL
MIC [1, 39]: < 1 µg/mL
MIC [1, 40]: < 1 µg/mL
MIC [1, 41]: < 1 µg/mL
MIC [1, 42]: 30 µg/mL (≈ 40.1 µM)
MIC [1, 43]: < 1 µg/mL
